# ChEMBL document CHEMBL3585310, “Synthesis and evaluation of artesunateindoloquinoline hybrids as antimalarial drug candidates” (Medchemcomm, 2014)
# Target: Heme
# Assay: Binding affinity to heme assessed as inhibition of beta-hematin formation by NP40 detergent based assay
# Settings: not given
row,SMILES,IC50 [µM]
1,NCCCNc1c2ccccc2nc2c1[nH]c1ccccc12,16.8
2,C[C@H]1[C@H](OC(=O)CCC(=O)NCC(C)(C)CNc2c3c4ccccc4nc-3n(C)c3ccc(Cl)cc23)O[C@@H]2O[C@@]3(C)CC[C@H]4CCC[C@@H]1[C@]42OO3,37.8
3,C[C@H]1[C@H](OC(=O)CCC(=O)NCCCNc2c3ccccc3nc3c2[nH]c2ccccc23)O[C@@H]2O[C@@]3(C)CC[C@H]4[C@H](C)CC[C@@H]1[C@@]24OO3,17.1
4,C[C@H]1[C@H](OC(=O)CCC(=O)NCCCNc2nc3ccccc3c3[nH]c4ccccc4c23)O[C@@H]2O[C@@]3(C)CC[C@H]4[C@H](C)CC[C@@H]1[C@@]24OO3,15.7
5,C[C@H]1[C@H](OC(=O)CCC(=O)NCCCNc2c3c4ccccc4nc-3n(C)c3ccccc23)O[C@@H]2O[C@@]3(C)CC[C@H]4CCC[C@@H]1[C@]42OO3,222
6,COC(=O)c1ccc2c(c1)c(NCC(C)(C)CNC(=O)CCC(=O)O[C@@H]1O[C@@H]3O[C@@]4(C)CC[C@H]5CCC[C@@H]([C@H]1C)[C@]53OO4)c1c3ccccc3nc-1n2C,25.8

# Test system: Plasmodium berghei
# Assay: Antimalarial activity against Plasmodium berghei infected in NMRI mouse at 10 mg/kg, ip for 4 consecutive days by FACS analysis
# Type: functional
# Settings: not given
row,SMILES,Activity [%]
1,C[C@H]1[C@H](OC(=O)CCC(=O)NCCCNc2c3c4ccccc4nc-3n(C)c3ccccc23)O[C@@H]2O[C@@]3(C)CC[C@H]4CCC[C@@H]1[C@]42OO3,89.6

# Test system: L6
# Assay: Cytotoxicity against rat L6 cells
# Type: cell-based
# Settings: not given
row,SMILES,IC50 [µM]
1,NCCCNc1c2ccccc2nc2c1[nH]c1ccccc12,0.276
2,C[C@H]1[C@H](OC(=O)CCC(=O)NCC(C)(C)CNc2c3c4ccccc4nc-3n(C)c3ccc(Cl)cc23)O[C@@H]2O[C@@]3(C)CC[C@H]4CCC[C@@H]1[C@]42OO3,1.28
3,C[C@H]1[C@H](OC(=O)CCC(=O)NCCCNc2c3ccccc3nc3c2[nH]c2ccccc23)O[C@@H]2O[C@@]3(C)CC[C@H]4[C@H](C)CC[C@@H]1[C@@]24OO3,2.62
4,C[C@H]1[C@H](OC(=O)CCC(=O)NCCCNc2nc3ccccc3c3[nH]c4ccccc4c23)O[C@@H]2O[C@@]3(C)CC[C@H]4[C@H](C)CC[C@@H]1[C@@]24OO3,2.2
5,C[C@H]1[C@H](OC(=O)CCC(=O)NCCCNc2c3c4ccccc4nc-3n(C)c3ccccc23)O[C@@H]2O[C@@]3(C)CC[C@H]4CCC[C@@H]1[C@]42OO3,1.53
6,COC(=O)c1ccc2c(c1)c(NCC(C)(C)CNC(=O)CCC(=O)O[C@@H]1O[C@@H]3O[C@@]4(C)CC[C@H]5CCC[C@@H]([C@H]1C)[C@]53OO4)c1c3ccccc3nc-1n2C,0.695

# Test system: Plasmodium falciparum
# Assay: Antiplasmodial activity against chloroquine-sensitive Plasmodium falciparum NF54
# Type: functional, organism-based
# Settings: not given
row,SMILES,IC50 [µM]
1,C[C@@H]1CC[C@H]2[C@@H](C)C(=O)O[C@@H]3O[C@@]4(C)CC[C@@H]1[C@]32OO4 [ARTEMISININ],0.0043
2,NCCCNc1c2ccccc2nc2c1[nH]c1ccccc12,0.0172
3,C[C@H]1[C@H](OC(=O)CCC(=O)NCC(C)(C)CNc2c3c4ccccc4nc-3n(C)c3ccc(Cl)cc23)O[C@@H]2O[C@@]3(C)CC[C@H]4CCC[C@@H]1[C@]42OO3,0.0015
4,C[C@H]1[C@H](OC(=O)CCC(=O)NCCCNc2c3ccccc3nc3c2[nH]c2ccccc23)O[C@@H]2O[C@@]3(C)CC[C@H]4[C@H](C)CC[C@@H]1[C@@]24OO3,0.0122
5,C[C@H]1[C@H](OC(=O)CCC(=O)NCCCNc2nc3ccccc3c3[nH]c4ccccc4c23)O[C@@H]2O[C@@]3(C)CC[C@H]4[C@H](C)CC[C@@H]1[C@@]24OO3,0.00167
6,C[C@H]1[C@H](OC(=O)CCC(=O)NCCCNc2c3c4ccccc4nc-3n(C)c3ccccc23)O[C@@H]2O[C@@]3(C)CC[C@H]4CCC[C@@H]1[C@]42OO3,0.00045
7,COC(=O)c1ccc2c(c1)c(NCC(C)(C)CNC(=O)CCC(=O)O[C@@H]1O[C@@H]3O[C@@]4(C)CC[C@H]5CCC[C@@H]([C@H]1C)[C@]53OO4)c1c3ccccc3nc-1n2C,0.00317

# Test system: not listed separately
# Assay: Selectivity index, ratio of IC50 for rat L6 cells to IC50 for chloroquine-sensitive Plasmodium falciparum NF54
# Type: toxicity, cell-based
# Settings: L6 cells (cytotoxicity) versus Plasmodium falciparum NF54, read-out: Ratio IC50
row,SMILES,selectivity ratio
1,NCCCNc1c2ccccc2nc2c1[nH]c1ccccc12,16
2,C[C@H]1[C@H](OC(=O)CCC(=O)NCC(C)(C)CNc2c3c4ccccc4nc-3n(C)c3ccc(Cl)cc23)O[C@@H]2O[C@@]3(C)CC[C@H]4CCC[C@@H]1[C@]42OO3,856
3,C[C@H]1[C@H](OC(=O)CCC(=O)NCCCNc2c3ccccc3nc3c2[nH]c2ccccc23)O[C@@H]2O[C@@]3(C)CC[C@H]4[C@H](C)CC[C@@H]1[C@@]24OO3,215
4,C[C@H]1[C@H](OC(=O)CCC(=O)NCCCNc2nc3ccccc3c3[nH]c4ccccc4c23)O[C@@H]2O[C@@]3(C)CC[C@H]4[C@H](C)CC[C@@H]1[C@@]24OO3,1320
5,C[C@H]1[C@H](OC(=O)CCC(=O)NCCCNc2c3c4ccccc4nc-3n(C)c3ccccc23)O[C@@H]2O[C@@]3(C)CC[C@H]4CCC[C@@H]1[C@]42OO3,3400
6,COC(=O)c1ccc2c(c1)c(NCC(C)(C)CNC(=O)CCC(=O)O[C@@H]1O[C@@H]3O[C@@]4(C)CC[C@H]5CCC[C@@H]([C@H]1C)[C@]53OO4)c1c3ccccc3nc-1n2C,219

# Test system: Plasmodium falciparum
# Assay: Antiplasmodial activity against chloroquine-resistant Plasmodium falciparum K1
# Type: functional, organism-based
# Settings: not given
row,SMILES,IC50 [µM]
1,C[C@@H]1CC[C@H]2[C@@H](C)C(=O)O[C@@H]3O[C@@]4(C)CC[C@@H]1[C@]32OO4 [ARTEMISININ],0.0028
2,C[C@H]1[C@H](OC(=O)CCC(=O)NCC(C)(C)CNc2c3c4ccccc4nc-3n(C)c3ccc(Cl)cc23)O[C@@H]2O[C@@]3(C)CC[C@H]4CCC[C@@H]1[C@]42OO3,0.00041
3,C[C@H]1[C@H](OC(=O)CCC(=O)NCCCNc2nc3ccccc3c3[nH]c4ccccc4c23)O[C@@H]2O[C@@]3(C)CC[C@H]4[C@H](C)CC[C@@H]1[C@@]24OO3,0.00067
4,C[C@H]1[C@H](OC(=O)CCC(=O)NCCCNc2c3c4ccccc4nc-3n(C)c3ccccc23)O[C@@H]2O[C@@]3(C)CC[C@H]4CCC[C@@H]1[C@]42OO3,0.00042
5,COC(=O)c1ccc2c(c1)c(NCC(C)(C)CNC(=O)CCC(=O)O[C@@H]1O[C@@H]3O[C@@]4(C)CC[C@H]5CCC[C@@H]([C@H]1C)[C@]53OO4)c1c3ccccc3nc-1n2C,0.00115

# Test system: Plasmodium berghei
# Assay: Antimalarial activity against Plasmodium berghei infected in NMRI mouse assessed as survival at 10 mg/kg, ip for 4 consecutive days by FACS analysis
# Type: functional
# Settings: not given
row,SMILES,MSD [days]
1,C[C@H]1[C@H](OC(=O)CCC(=O)NCCCNc2c3c4ccccc4nc-3n(C)c3ccccc23)O[C@@H]2O[C@@]3(C)CC[C@H]4CCC[C@@H]1[C@]42OO3,7.7

# Test system: Plasmodium falciparum
# Assay: Resistance index, ratio of IC50 for chloroquine-resistant Plasmodium falciparum K1 to IC50 chloroquine-sensitive Plasmodium falciparum NF54
# Type: functional
# Settings: not given
row,SMILES,Ratio IC50
1,C[C@H]1[C@H](OC(=O)CCC(=O)NCC(C)(C)CNc2c3c4ccccc4nc-3n(C)c3ccc(Cl)cc23)O[C@@H]2O[C@@]3(C)CC[C@H]4CCC[C@@H]1[C@]42OO3,0.27
2,C[C@H]1[C@H](OC(=O)CCC(=O)NCCCNc2nc3ccccc3c3[nH]c4ccccc4c23)O[C@@H]2O[C@@]3(C)CC[C@H]4[C@H](C)CC[C@@H]1[C@@]24OO3,0.4
3,C[C@H]1[C@H](OC(=O)CCC(=O)NCCCNc2c3c4ccccc4nc-3n(C)c3ccccc23)O[C@@H]2O[C@@]3(C)CC[C@H]4CCC[C@@H]1[C@]42OO3,0.93
4,COC(=O)c1ccc2c(c1)c(NCC(C)(C)CNC(=O)CCC(=O)O[C@@H]1O[C@@H]3O[C@@]4(C)CC[C@H]5CCC[C@@H]([C@H]1C)[C@]53OO4)c1c3ccccc3nc-1n2C,0.36

# Test system: not listed separately
# Assay: Selectivity index, ratio of IC50 for rat L6 cells to IC50 for chloroquine-resistant Plasmodium falciparum K1
# Type: toxicity, cell-based
# Settings: L6 cells (cytotoxicity) versus Plasmodium falciparum K1, read-out: Ratio IC50
row,SMILES,selectivity ratio
1,C[C@H]1[C@H](OC(=O)CCC(=O)NCC(C)(C)CNc2c3c4ccccc4nc-3n(C)c3ccc(Cl)cc23)O[C@@H]2O[C@@]3(C)CC[C@H]4CCC[C@@H]1[C@]42OO3,3130
2,C[C@H]1[C@H](OC(=O)CCC(=O)NCCCNc2nc3ccccc3c3[nH]c4ccccc4c23)O[C@@H]2O[C@@]3(C)CC[C@H]4[C@H](C)CC[C@@H]1[C@@]24OO3,3290
3,C[C@H]1[C@H](OC(=O)CCC(=O)NCCCNc2c3c4ccccc4nc-3n(C)c3ccccc23)O[C@@H]2O[C@@]3(C)CC[C@H]4CCC[C@@H]1[C@]42OO3,3640
4,COC(=O)c1ccc2c(c1)c(NCC(C)(C)CNC(=O)CCC(=O)O[C@@H]1O[C@@H]3O[C@@]4(C)CC[C@H]5CCC[C@@H]([C@H]1C)[C@]53OO4)c1c3ccccc3nc-1n2C,604
